We go through eleven compounds from patent US20240182445A1 (ONO PHARMACEUTICAL CO., LTD., priority 2019, published 2024).

One assay deals with T1, human TREK-1 (Homo sapiens, UniProt O95069).
T1 construct: expressed in transfected cells
T1 sequence (O95069 1-426): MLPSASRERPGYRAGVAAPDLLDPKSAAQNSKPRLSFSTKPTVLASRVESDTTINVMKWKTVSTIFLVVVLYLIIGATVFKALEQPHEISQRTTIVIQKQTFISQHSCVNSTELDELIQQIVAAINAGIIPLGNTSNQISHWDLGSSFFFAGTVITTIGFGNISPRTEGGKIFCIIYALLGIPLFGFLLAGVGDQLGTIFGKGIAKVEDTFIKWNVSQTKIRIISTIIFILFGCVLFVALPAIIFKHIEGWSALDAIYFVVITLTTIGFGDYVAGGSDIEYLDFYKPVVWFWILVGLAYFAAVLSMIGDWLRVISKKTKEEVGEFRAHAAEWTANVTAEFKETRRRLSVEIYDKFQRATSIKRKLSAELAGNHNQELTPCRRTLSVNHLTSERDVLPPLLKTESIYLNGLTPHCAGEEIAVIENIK
Briefly: TREK-1 Thallium (Tl+) flux assay, Method 1. It counts as cell-based. The conditions noted are these: TREK-1 Thallium (Tl+) flux assay; no *^12 (Method 2) mark on these rows. The method, then: The term “thallium flux assay” herein refers to a fluorescence-based assay used to monitor the activity of TREK channels. Thallium is a congener of potassium that readily fluxes through the pore of TREK channels. Thallium flux is measured using a commercially available, thallium-sensitive fluorescent dye called Thallos. The detail method is described below.
CHO-K1 cells stably expressing human TREK-1 were plated in 384-well plates, cultured overnight, loaded with Thallos dye the following day. Test compounds or control compound (tert-butyl (3-((4-(benzyloxy)-2-methylphenyl)carbamoyl)-4-chlorophenyl)carbamate) or 0.3% DMSO (vehicle control) which were prepared on separate plates were added to the cell plates and incubated for 10 min, and then the cells were treated with thallium stimulus buffer to initiate thallium flux. To measure the efficacy and potency of test compounds, the change in fluorescence intensity (ΔRatio) and % inhibition were calculated using the following equations:
ΔRatio=(fluorescence intensity at 25 seconds after thallium addition)/(average of fluorescent intensity before thallium addition)
As to `CC(C)(C)OC(=O)N1CCC(n2ncc(Cl)c2C(=O)Nc2ncc(C#Cc3ccccc3)cc2F)CC1` [Compound 255, tert-butyl 4-(4-chloro-5-((3-fluoro-5-(phenylethynyl)pyridin-2-yl)carbamoyl)-1H-pyrazol-1-yl)piperidine-1-carboxylate], inhibition was half-maximal at 420 nM (IC50). That is a sub-micromolar value. Still for that read-out and setting: to `O=C(Nc1c(F)cc(C#Cc2ccccc2)cc1F)c1c(Cl)cnn1[C@H]1CCOC1` [Compound 199, (S)-4-chloro-N-(2,6-difluoro-4-(phenylethnyl)phenyl)-1-(tetrahydrofuran-3-yl)-1H-pyrazole-5-carboxamide] belongs 310 nM; to `CC(=O)N1C[C@H]2C[C@H](n3ncc(Cl)c3C(=O)Nc3ncc(C#Cc4ccccc4)cc3C)C[C@H]2C1` [Compound 260, 1-[(3aR,5s,6aS)-2-acetyloctahydrocyclopenta[c]pyrrol-5-yl]-4-chloro-N-[3-methyl-5-(phenylethynyl)pyridin-2-yl]-1H-pyrazole-5-carboxamide], 260 nM.

As for `N#CCCCn1ncc(Cl)c1C(=O)Nc1c(F)cc(C#Cc2ccccc2)cc1F` [Compound 253, 4-chloro-1-(3-cyanopropyl)-N-(2,6-difluoro-4-(phenylethynyl)phenyl)-1H-pyrazole-5-carboxamide], 410 nM corresponded to half-maximal inhibition (IC50).

With `CC(=O)N1CCC2(CC(n3ncc(Cl)c3C(=O)Nc3ncc(C#Cc4ccc(F)cc4)cc3C)C2)C1` (centres unmarked) [Compound 312, 1-(6-acetyl-6-azaspiro[3.4]octan-2-yl)-4-chloro-N-{5-[(4-fluorophenyl)ethynyl]-3-methylpyridin-2-yl}-1H-pyrazole-5-carboxamide], the IC50 (commonly the concentration that gives 50% inhibition) was 590 nM.

Still in this assay, the particulars now being: TREK-1 Thallium (Tl+) flux assay; values without footnote *12 are Method 1.
With `CC(=O)N1CC[C@@H](n2ncc(Cl)c2C(=O)Nc2ncc(C#Cc3ccccc3)cc2C)C[C@@H]1C` (single isomer, unassigned) [Compound 86, 1-[(2S,4R)-1-acetyl-2-methylpiperidin-4-yl]-4-chloro-N-[3-methyl-5-(phenylethynyl)pyridin-2-yl]-1H-pyrazole-5-carboxamide or 1-[(2R,4S)-1-acetyl-2-methylpiperidin-4-yl]-4-chloro-N-[3-methyl-5-(phenylethynyl)pyridin-2-yl]-1H-pyrazole-5-carboxamide], the midpoint of inhibition, the IC50, lay at 170 nM. `Cc1cc(C#Cc2ccc(F)cc2)cnc1NC(=O)c1c(Cl)cnn1C1CC2(C1)CN(C(=O)C1COCCO1)C2` (centres unmarked) [Compound 138, 1-(2-(1,4-dioxane-2-carbonyl)-2-azaspiro[3.3]heptan-6-yl)-4-chloro-N-(5-((4-fluorophenyl)ethynyl)-3-methylpyridin-2-yl)-1H-pyrazole-5-carboxamide] came in with an IC50 of 220 nM. The compound `Cc1cc(C#Cc2cccs2)cnc1NC(=O)c1c(Cl)cnn1CC1CCN(C(=O)C2COCCO2)CC1` (centres unmarked) [Compound 103, 1-((1-(1,4-dioxane-2-carbonyl)piperidin-4-yl)methyl)-4-chloro-N-(3-methyl-5-(thiophen-2-ylethynyl)pyridin-2-yl)-1H-pyrazole-5-carboxamide] displayed an IC50 of 190 nM. On the same count and under the same terms, as for `CC(=O)N1CCC(C#N)(Cn2ncc(Cl)c2C(=O)Nc2ncc(C#Cc3ccc(F)cc3)cc2C)CC1` [Compound 179, 1-((1-acetyl-4-cyanopiperidin-4-yl)methyl)-4-chloro-N-(5-((4-fluorophenyl)ethynyl)-3-methylpyridin-2-yl)-1H-pyrazole-5-carboxamide], the figure is 270 nM. For the compound `CC(=O)N1CCC(n2ncc(Cl)c2C(=O)Nc2c(F)cc(C#Cc3ccccc3)cc2F)CC1` [Compound 33, 1-(1-acetylpiperidin-4-yl)-4-chloro-N-(2,6-difluoro-4-(phenylethynyl)phenyl)-1H-pyrazole-5-carboxamide], the 50% inhibitory concentration (IC50) was 110 nM. With `N#CC1(Cn2ncc(Cl)c2C(=O)Nc2c(F)cc(C#Cc3ccccc3)cc2F)CC1` [Compound 168, 4-chloro-1-((1-cyanocyclopropyl)methyl)-N-(2,6-difluoro-4-(phenylethynyl)phenyl)-1H-pyrazole-5-carboxamide], it took 270 nM to reach half-maximal inhibition (IC50).
